Tested on: MAMEL-3M melanoma cell line
Experiment: Cell growth inhibition, WST-8 assay, MAMEL-3M
Type: cell-based
Conditions: 96 h, 4 days
Procedure: Cells were seeded in 96-well flat bottom cell culture plates at a density of 3000 cells/well with a tested compound and incubated at 37° C. in an atmosphere of 95% air and 5% CO2 for 4 days. The rate of cell growth inhibition after treatment with different concentrations of the compound was determined using a WST-8 kit (2-(2-methoxy-4-nitrophenyl)-3-(4-nitrophenyl)-5-(2, 4 disulfophenyl)-2H-tetrazolium monosodium salt; Dojindo Molecular Technologies, Inc., Gaithersburg, Md.). WST-8 was added at a final concentration of 10% to each well, and then the plates were incubated at 37° C. for 2-3 hrs. The absorbance of the samples was measured at 450 nm using a ULTRA Tecan Reader (Molecular Device).

SMILES: CN[C@@H](C)C(=O)N[C@H]1CCCC[C@H]2CC[C@@H](C(=O)N[C@@H](c3ccccc3)c3cn(CCCCc4ccc(CCCCn5cc([C@@H](NC(=O)[C@@H]6CC[C@@H]7CCCC[C@H](NC(=O)[C@H](C)NC)C(=O)N76)c6ccccc6)nn5)cc4)nn3)N2C1=O [SH-164]
- IC50: 1.4 nM

Source: patent US8202902B2, “Bivalent SMAC mimetics and the uses thereof” (The Regents of the University of Michigan, priority 2006, dated 2012)
